Tests used:
h-STING = target: T1, h-STING (Homo sapiens, UniProt Q86WV6, G230A/R293Q/R71H); assay: THP1-Dual reporter activation fold; type: cell-based
T1 construct: THP1-Dual Fold (10 μM); endogenous in cells; host or cells: THP1-Dual

m-STING = target: T2, m-STING (Mus musculus, UniProt Q3TBT3); assay: Raw-lucia reporter activation fold; type: cell-based
T2 construct: Raw-lucia Fold (50 μM); endogenous in cells; host or cells: RAW-Lucia
T2 sequence (Q3TBT3 1-378): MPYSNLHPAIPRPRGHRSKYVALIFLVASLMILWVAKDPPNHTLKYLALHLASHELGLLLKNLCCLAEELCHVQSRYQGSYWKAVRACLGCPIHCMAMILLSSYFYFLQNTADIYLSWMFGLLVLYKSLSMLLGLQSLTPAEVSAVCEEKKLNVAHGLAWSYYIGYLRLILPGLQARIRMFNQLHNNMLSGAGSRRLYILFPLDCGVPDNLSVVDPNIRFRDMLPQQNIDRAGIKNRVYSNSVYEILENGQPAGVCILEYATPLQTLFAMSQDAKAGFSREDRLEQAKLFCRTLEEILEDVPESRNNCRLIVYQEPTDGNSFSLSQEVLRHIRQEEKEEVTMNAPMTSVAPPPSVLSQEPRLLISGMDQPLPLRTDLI

STING signaling = assay: Relative gene expression in RAW-Lucia cells (RT-qPCR); type: cell-based, mouse
Protocol: (§1) RNA from tumor tissues or cells was extracted using the SteadyPure Universal RNA Extraction Kit (Accurate Biology) and reverse transcribed into cDNA with the Evo M-MLV Reverse Transcription Kit (Accurate Biology). Relative RNA expression levels were quantified using 2X Universal SYBR Green Fast qPCR Mix (Abclonal), and the results were recorded on the qTOWER®3 84 Real-Time PCR system.

[1] = Metabolite profiling in liver microsomes, 60 min incubation; type: in vitro ADME, rat; details: D166 incubated 60 min; selected ion chromatographic peak areas
cGAS-STING pathway = assay: cGAS-STING pathway, IFN-β and ISG readout in pancreatic cancer organoids; type: cell-based, human
Protocol: (§2) Tumor tissues or cells were thoroughly lysed in RIPA buffer containing protease and phosphatase inhibitors. The lysates were then centrifuged to collect the supernatant. Proteins were separated by electrophoresis in MOPS buffer and subsequently transferred onto a PVDF membrane. After blocking, the membrane was sequentially incubated with the primary antibody, secondary antibody, and chemiluminescent substrate (ECL) for imaging.
as §1
(§3) Multiplex cytokine detection was performed using Luminex cytokine bead array technology provided by WayenBio, Shanghai. In the mouse tumor model, levels of multiple cytokines were simultaneously measured and normalized to tumor weight. For the quantification of specific cytokines, such as IL-6 and IFN-β, enzyme-linked immunosorbent assay (ELISA) kits from Abclonal were used. The assays were conducted according to the manufacturer's instructions.

[2] = tested on: STING and downstream signaling molecules; assay: STING pathway western blot in Panc-1 cell line; type: cell-based; details: human pancreatic cell line Panc-1
Protocol: as §2
(§4) Western Blot showing cGAS-STING pathway protein expression of Panc-1 cell line
(§5) (B) CCK8 of Panc-1 cell line when
(§6) (C-D) Representative image (C) and statistic (D) of […]

Panc-1 cell line = assay: CCK8 and colony assay of Panc-1 cell line; type: cell-based, human; details: Panc-1, 10μM D166, CCK8 and colony assay
Text: as §4, §5, §6

[3] = tested on: subcutaneous pancreatic tumor; assay: Subcutaneous pancreatic tumor model; type: in vivo, C57BL/6 mice
Protocol: C57BL/6 mice were obtained from Phenotek (Shanghai) and randomly assigned to groups, with a minimum of six mice per group. For the subcutaneous tumor model, approximately 5 × 10^5 tumor cells were suspended in 150 μL PBS and injected into the left flank of the mice. Tumor size was measured every four days starting from day 7 post-injection. On days 9, 12, and 15, the mice were administered three different concentrations of the drug via peritumoral injection, while the Control group received only the solvent. The mice were euthanized on day 25, and tumors were excised, weighed, and further analyzed.
as §3

[4] = tested on: pancreatic tumor organoids co-cultured with T cells or macrophages; assay: Co-culture of pancreatic tumor organoids and immune cells; type: cell-based, human
Protocol: T cells and monocytes were isolated from the peripheral blood of patients using the EasySep™ Human CD8+ T Cell Isolation Kit and Human Monocyte Isolation Kit ([…]). CD8+ T cells were activated with anti-CD3 (5 μg/mL) and anti-CD28 (5 μg/mL) antibodies (BioLegend), while monocytes were stimulated with 50 ng/mL of M-CSF (BioLegend) for 6 days to induce differentiation into macrophages. […] On day 5, immune cells were harvested for flow cytometry analysis. Tumor organoids were photographed, viability was assessed, and organoids were embedded for HE and IHC staining at days 0, 5, and 10 of co-culture.
Mouse tumors were digested using the Mouse Tumor Dissociation Kit (Miltenyi Biotec) according to the manufacturer's protocol. The resulting single-cell suspension was filtered through a 70-micron mesh to ensure a homogeneous cell population. Cells were stained with fluorescently labeled antibodies for flow cytometry at 4°C on ice for 30 minutes. After washing off unbound antibodies, fluorescence was detected using a Beckman CytoFlex S flow cytometer. For co-cultured immune cells, separated T cells and macrophages were similarly stained with flow cytometry antibodies. For cytokine staining, cells were pre-stimulated with the eBioscience™ Cell Stimulation Cocktail for 4 hours. For intracellular protein staining, after surface staining, cells were fixed and permeabilized using the BD Cytofix/Cytoperm™ Fixation/Permeabilization Kit, followed by staining for intracellular proteins. Flow cytometry data were analyzed using FlowJo 10 software.

T1 sequence (Q86WV6 whole entry R71H/G230A/R293Q): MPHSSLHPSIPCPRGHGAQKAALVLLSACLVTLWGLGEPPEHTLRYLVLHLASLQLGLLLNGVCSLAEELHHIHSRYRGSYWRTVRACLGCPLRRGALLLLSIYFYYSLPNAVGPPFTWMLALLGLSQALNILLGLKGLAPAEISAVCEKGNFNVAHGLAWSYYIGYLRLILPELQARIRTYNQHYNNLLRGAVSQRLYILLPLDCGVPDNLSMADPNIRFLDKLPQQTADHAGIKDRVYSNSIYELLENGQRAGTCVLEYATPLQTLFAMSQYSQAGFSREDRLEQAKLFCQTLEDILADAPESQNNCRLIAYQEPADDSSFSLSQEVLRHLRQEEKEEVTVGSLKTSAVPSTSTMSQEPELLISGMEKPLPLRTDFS

With [2H]C([2H])([2H])Oc1cc2cc(C(=O)CCC(=O)O)sc2cc1OC([2H])([2H])[2H] [D166] the “THP1-Dual Fold (10 μM)” value (h-STING) was 60.46 Fold, the “Raw-lucia Fold (50 μM)” value (m-STING) was 25.34 Fold and the “Relative expression (Cxcl10/actin)” value (STING signaling) was 158.00 ± 2.91. The “Relative Peak Area Abundance (%) RLM” value [1] was 97.7%, the “activating IFN-stimulated genes (ISGs) compared with ADU-S100, MSA-2, SR-717, MK-1454 and DXMAA” value (cGAS-STING pathway; organoids, 10μM) was “better efficacy” and the “activation of the cGAS-STING pathway and induction of IFN-β” value (cGAS-STING pathway; pancreatic cancer organoids, different concentration and duration) was “time- and dose-dependent effect”. For the same compound, the “activation of STING and downstream signaling molecules” value [2] was “dose- and time-dependent manner”, the proliferation (Panc-1 cell line) was “without affecting proliferation” and the “IL-6, IFN-β, and TNF-α levels in the TME” value ([3]; higher D166 doses, ELISA) was “increased”. The tumor growth ([3]; peritumoral injection, different doses) was “significant dose-dependent inhibitory effect”, the “antitumor efficacy compared with other STING agonists” value ([3]; tumor weight, Figure S4A) was “comparable to that of other STING agonists” and the “size and viability of pancreatic cancer organoids” value ([4]; CTG assay, days 0, 5, 10 of co-culture) was “significant reduction”. The “IL-6, IFN-β, IFN-γ, and TNF-α levels” value ([4]; culture medium, ELISA) was “significantly increased”, the “IFNG and GZMB release from T cells” value ([4]; flow cytometry) was “marked increase” and the “mean fluorescence intensities (MFI) of CD86 and CD80 (M1 markers) in macrophages” value ([4]; flow cytometry) was “significantly increased”. For the same compound, the “mean fluorescence intensities (MFI) of CD163 and CD206 (M2 markers) in macrophages” value ([4]; flow cytometry) was “significantly decreased”.

Source: PMC12160547, “Identification of a Novel Small Molecule STING Agonist Reshaping the Immunomicroenvironment of Pancreatic Ductal Adenocarcinoma” (International Journal of Biological Sciences, 2025)
